# Columns and labels:
# [1] = target: T1, Ectonucleotide pyrophosphatase/phosphodiesterase family member 1 (Homo sapiens) (UniProt P22413); assay: Inhibition of PC1 by in vitro Kinase-Glo assay
# T1 sequence (whole entry): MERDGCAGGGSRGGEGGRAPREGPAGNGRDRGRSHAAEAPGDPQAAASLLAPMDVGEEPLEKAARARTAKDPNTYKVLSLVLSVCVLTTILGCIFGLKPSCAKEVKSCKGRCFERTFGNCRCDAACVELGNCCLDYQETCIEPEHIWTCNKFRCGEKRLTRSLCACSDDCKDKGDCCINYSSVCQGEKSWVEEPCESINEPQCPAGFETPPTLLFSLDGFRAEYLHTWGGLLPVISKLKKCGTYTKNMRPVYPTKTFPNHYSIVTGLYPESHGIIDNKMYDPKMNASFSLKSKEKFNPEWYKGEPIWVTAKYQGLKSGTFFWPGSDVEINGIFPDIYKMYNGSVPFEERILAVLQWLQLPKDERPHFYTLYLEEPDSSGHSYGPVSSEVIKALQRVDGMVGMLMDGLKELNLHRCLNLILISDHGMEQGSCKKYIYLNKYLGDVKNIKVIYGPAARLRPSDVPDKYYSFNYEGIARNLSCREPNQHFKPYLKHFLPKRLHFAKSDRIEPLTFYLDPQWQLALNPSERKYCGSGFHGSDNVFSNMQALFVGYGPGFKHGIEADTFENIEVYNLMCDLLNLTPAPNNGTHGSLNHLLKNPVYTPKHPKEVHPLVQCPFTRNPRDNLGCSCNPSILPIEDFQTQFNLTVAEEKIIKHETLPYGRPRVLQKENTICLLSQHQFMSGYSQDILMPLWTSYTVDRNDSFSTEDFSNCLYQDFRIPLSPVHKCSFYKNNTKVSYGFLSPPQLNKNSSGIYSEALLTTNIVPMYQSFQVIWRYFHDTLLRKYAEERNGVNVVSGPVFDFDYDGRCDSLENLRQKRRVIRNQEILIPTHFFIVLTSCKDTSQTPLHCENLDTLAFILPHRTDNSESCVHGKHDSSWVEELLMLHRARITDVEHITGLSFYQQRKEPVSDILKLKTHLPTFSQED
# [2] = target: Voltage-gated inwardly rectifying potassium channel KCNH2 (Homo sapiens, UniProt Q12809); assay: Displacement of [3H]-dofetilid from human ERG expressed in HEK293 cells; assay type: cell-based
# [3] = Selectivity for PC1 to human ERG channel
# Sequence of Voltage-gated inwardly rectifying potassium channel KCNH2 (Q12809 whole entry): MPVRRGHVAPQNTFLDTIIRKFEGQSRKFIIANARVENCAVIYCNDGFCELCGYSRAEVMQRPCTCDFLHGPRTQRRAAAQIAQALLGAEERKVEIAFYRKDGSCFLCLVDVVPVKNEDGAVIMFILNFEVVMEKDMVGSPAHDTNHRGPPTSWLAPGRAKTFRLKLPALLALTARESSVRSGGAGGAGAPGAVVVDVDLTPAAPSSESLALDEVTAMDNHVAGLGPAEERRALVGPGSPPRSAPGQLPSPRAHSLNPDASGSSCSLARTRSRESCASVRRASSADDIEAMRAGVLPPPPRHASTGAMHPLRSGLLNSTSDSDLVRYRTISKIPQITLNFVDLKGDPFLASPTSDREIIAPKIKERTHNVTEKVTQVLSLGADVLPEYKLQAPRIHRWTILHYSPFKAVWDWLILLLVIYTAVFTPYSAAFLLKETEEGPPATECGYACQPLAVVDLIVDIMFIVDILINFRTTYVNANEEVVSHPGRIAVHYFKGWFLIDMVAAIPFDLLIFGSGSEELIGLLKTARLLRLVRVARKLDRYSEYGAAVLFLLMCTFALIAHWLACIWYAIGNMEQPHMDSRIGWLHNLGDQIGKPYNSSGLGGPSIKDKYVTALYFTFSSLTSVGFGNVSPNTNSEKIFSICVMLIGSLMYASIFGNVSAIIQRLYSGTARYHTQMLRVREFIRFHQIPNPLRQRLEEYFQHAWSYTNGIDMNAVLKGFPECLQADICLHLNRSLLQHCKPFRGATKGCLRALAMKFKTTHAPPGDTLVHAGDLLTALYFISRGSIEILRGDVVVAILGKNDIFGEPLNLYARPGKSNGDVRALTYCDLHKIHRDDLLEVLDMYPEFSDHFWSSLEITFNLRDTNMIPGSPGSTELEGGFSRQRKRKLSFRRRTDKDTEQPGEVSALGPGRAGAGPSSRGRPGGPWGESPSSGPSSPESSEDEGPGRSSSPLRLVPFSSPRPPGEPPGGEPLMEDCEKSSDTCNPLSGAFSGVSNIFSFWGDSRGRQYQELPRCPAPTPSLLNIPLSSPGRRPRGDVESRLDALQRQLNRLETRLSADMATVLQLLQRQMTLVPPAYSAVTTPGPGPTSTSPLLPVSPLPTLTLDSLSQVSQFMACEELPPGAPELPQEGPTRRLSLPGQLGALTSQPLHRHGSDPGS
Compound,INH [1] [µM],Ratio [3],INH [2] [µM]
Cc1nccn1-c1nccc(N2CCC(CCNS(N)(=O)=O)CC2)n1,2.45,,6.867
COc1ccc2c(N3CCC(CCNS(N)(=O)=O)CC3)ncnc2c1,0.187,1,0.1202
Cc1nccn1-c1cc(N2CCC(CCNS(N)(=O)=O)CC2)ncn1,0.6,> 16,> 10
COc1cc2nc(/C=C/c3cccnc3)nc(N3CCC(CCNS(N)(=O)=O)CC3)c2cc1OC,0.0353,8,0.276
COc1ccc2c(N3CCC(CNS(N)(=O)=O)CC3)ncnc2c1,0.166,> 60,> 10
Cc1nccn1-c1cc(N2CCC(CNS(N)(=O)=O)CC2)ncn1,> 10,,> 10
COc1cc2ncnc(N3CCC(CCNS(N)(=O)=O)CC3)c2cc1OC,0.0362,17,0.601
NS(=O)(=O)NCCC1CCN(c2ncnc3cc(Cl)ccc23)CC1,> 10,,3.4
COc1cc2ncnc(N3CCC(CNS(N)(=O)=O)CC3)c2cc1OC,0.061,> 160,> 10

# Now from value to compound, other results behind:
INH [1] [µM],Ratio [3],Compound,INH [2] [µM]
0.214,,CCc1nc(N2CCC(CCNS(N)(=O)=O)CC2)c2cc(OC)c(OC)cc2n1,
> 10,,COc1cc2ncnc(N3CCC(NS(N)(=O)=O)CC3)c2cc1OC,> 10
0.063,52,COc1cc2nc(/C=C/c3cccnc3)nc(N3CCC(CNS(N)(=O)=O)CC3)c2cc1OC,3.296
5.98,,NS(=O)(=O)NCCC1CCN(c2ncnc3ccc(Cl)cc23)CC1,

# Source: ChEMBL document CHEMBL1781918, “Quinazolin-4-piperidin-4-methyl sulfamide PC-1 inhibitors: alleviating hERG interactions through structure based design” (Bioorg Med Chem Lett, 2009)
